Source: patent US20230355646A1, “AUTOPHAGY ACTIVATOR” (Resonac Corporation, priority 2020, published 2023)

System: ATG7 gene
Experiment: ATG7 gene expression promoting effect in human neuroblastoma SH-SY5Y in the presence of amyloid β
Type: cell-based
Description: In the presence of an autophagy activator, the expression levels of the LC3 gene, ATG5 gene, and ATG7 gene in human neuroblastoma (SH-SY5Y; obtained from ATCC) were measured by the following test method, and the effect of promoting the expression of the LC3 gene, ATG5 gene, and ATG7 gene by an autophagy activator was evaluated.
In the following examples and comparative examples, tests were performed by adding amyloid β, which is known to cause a decrease in autophagy in nerve cells, to each medium.
SH-SY5Y cells were prepared at a seeding density of 10000 cells/cm^2 and cultured for 24 hours in D-MEM medium/Ham's F-12 medium (manufactured by Sigma-Aldrich) to which 10% fetal bovine serum (manufactured by MP Biomedicals) was added. Next, in Example 15, the methyl hesperidin DMSO solution was added to the medium such that the final concentration of methyl hesperidin was 10^−3% (V/V) and the final concentration of DMSO was 0.1% (V/V). […]
Then, using Nucleospin (registered trademark) RNA kit (manufactured by Takara Bio Inc.), RNA was extracted from SH-SY5Y cells in each example, and cDNA was synthesized from the obtained RNA. Next, using this cDNA as a template, by quantitative real-time PCR, the expression level of each gene was quantified using primers (manufactured by Takara Bio Inc.) specific to the LC3 gene, ATG5 gene, and ATG7 gene, respectively. […]

COc1ccc([C@@H]2CC(=O)c3c(O)cc(O[C@@H]4O[C@H](CO[C@@H]5O[C@@H](C)[C@H](O)[C@@H](O)[C@H]5O)[C@@H](O)[C@H](O)[C@H]4O)cc3O2)cc1O [Comparative Example 2, hesperidin]
expression level of the ATG7 gene (in words) (SH-SY5Y cells with amyloid β, compared to DMSO and amyloid β of Comparative Example 5): increased
Relative gene expression level ATG7 (SH-SY5Y cells, 20 μM amyloid β present, 10^−2% (V/V) methyl hesperidin or hesperidin, additional ingredient where in the example, 48 hours, Reference Example 3 = 1.00): 2.31
